Laboratory results published in patent US9981973B2, “Tricyclic compounds as inhibitors of immunosuppression mediated by tryptophan metabolization” (NewLink Genetics Corporation, priority 2013, dated 2018).

Biological target: purified human TDO protein (Homo sapiens (Human), UniProt P48775)
Test: Enzymatic TDO assay
Assay type: biochemical
Description: Differently from the IDO activity assay, no methylene blue is added to the assay. The inhibitors were initially diluted in DMSO at 100 mM and were diluted in potassium phosphate 50 mM, added to the reaction mixture at final concentrations raging from 30 μM to 5 nM and preincubated with the enzyme for 5 min at 25° C. The reaction was started by addition of L-tryptophan to 20 μM and incubated 15 min at 37° C. The reaction was stopped by addition of 0.5 vol of 30% trichloroacetic acid and incubated 30 min at 60° C. to hydrolyze N-formylkynurenine to kynurenine. The reaction was centrifuged at 3400 g for 5 min to remove precipitated protein and the supernatant was reacted with 2% (w/v) of p-dimethylaminobenzaldehyde in acetic acid. The reaction was incubated 10 min at 25° C. and read at 480 nm in a spectrophotometer. Control samples with no TDO inhibitor, or with no TDO enzyme were used as controls to set the parameters for the non-linear regressions necessary for determination of the IC50 for each compound. Nonlinear regressions and determination of the IC50 values were performed using the GraphPad Prism 4 software.

Chain of purified human TDO protein (P48775 whole entry): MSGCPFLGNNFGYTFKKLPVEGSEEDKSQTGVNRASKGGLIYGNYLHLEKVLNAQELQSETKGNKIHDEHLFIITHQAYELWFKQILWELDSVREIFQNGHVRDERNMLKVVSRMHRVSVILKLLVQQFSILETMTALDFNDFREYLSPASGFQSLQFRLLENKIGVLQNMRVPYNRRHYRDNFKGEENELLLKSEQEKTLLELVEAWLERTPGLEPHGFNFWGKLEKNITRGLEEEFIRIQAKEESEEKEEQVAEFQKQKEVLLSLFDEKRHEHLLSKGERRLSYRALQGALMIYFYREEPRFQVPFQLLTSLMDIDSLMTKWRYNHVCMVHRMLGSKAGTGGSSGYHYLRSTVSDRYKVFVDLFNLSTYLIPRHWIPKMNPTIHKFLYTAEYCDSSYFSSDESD

| IC50 | Compound |
| --- | --- |
| > 10 µM | O=C(CC1c2ccccc2-c2nncn21)C1CCCCC1 (stereo not drawn) [Compound 43, 2-(5H-[1,2,4]triazolo[3,4-a]isoindol-5-yl)-1-cyclohexylethan-1-one] |
| > 10 µM | O=C(CC1c2ccccc2-c2cnnn21)C1CCC(F)(F)CC1 (stereo not drawn) [Compound 54, 2-(8H-[1,2,3]triazolo[5,1-a]isoindol-8-yl)-1-(4,4-difluorocyclohexyl)ethan-1-one] |
| > 10 µM | OC(CC1c2ccccc2-c2nncn21)C1CCCCC1 (stereo not drawn) [Compound 69, 2-(5H-[1,2,4]triazolo[3,4-a]isoindol-5-yl)-1-cyclohexylethan-1-ol] |
